Assay results taken from patent US20240069001A1, “ADAPTIVE PERFUSION SYSTEMS AND METHODS FOR DRUG RELEASE TESTING” (The United States of America, as represented by the …, priority 2020, published 2024).

Assays:
Type in all cases: physicochemical
[1] = Reverse-dialysis release/diffusion of pure difluprednate solution (USP 2 apparatus, 100 kD MWCO dialysis tubes); conditions: pH 7.4 phosphate buffer:ethanol 80:20, 34° C.
Experimental: Release of difluprednate from pure drug solution was studied using a reverse-dialysis setup, where drug was transferred from outside a dialysis device to the inside. As compared to a dialysis configuration, the reverse-dialysis configuration provides an advantage in terms of allowing for better control of dilution and maximum drug concentration gradient across oil/water interface to drive the drug release. Diffusion of difluprednate through dialysis membrane was determined in a USP 2 apparatus setup (Vision Elite 8, Teledyne Hanson Research, with mini-vessels 800) using commercially available dialysis tubes 808 (Float-A-Lyzer G2, 100 kD MWCO, regenerated cellulose, Spectrum Labs, CA, USA), as shown in FIG. 8A. Each dialysis tube 808 was cleaned with 1.0% w/v polysorbate-80 solution in deionized water and subsequently washed thoroughly with deionized water. Dialysis tubes 808, containing about 1 mL of the release media (i.e., 10 mM pH 7.4 phosphate buffer mixed with ethanol in the ratio of 80:20 v/v), were suspended inside the USP 2 mini-vessels 800. Agitation was controlled at 100 rpm and the temperature was maintained at 34° C. Using conduit 806, 1 mL of difluprednate solution (1 mg/mL in ethanol) was spiked directly into the vessel 800, which contained 200 mL release media 802, in order to achieve an initial drug concentration of 5 μg/mL.
(§1) Within dialysis tube 808, difluprednate concentration (e.g., drug that had diffused through the membrane filter of dialysis device 808) was monitored in real time using an in-situ fiber optic probe 804, in particular a fiber optic UV-Vis system (Pion μDiss Profiler™, Billerica, MA). The scanning frequency was once every minute for the first 6 hours, then it switched to once every 5 minutes for the next 18 hours. After first 24 hours, the scanning frequency was changed to once every 10 minutes for the next 40 hours. For the last 104 hours, the scanning frequency was once every 30 min. The total experimental time was 168 hours (7 days). Pure difluprednate solution diluted with release medium at the same concentration of 5 μg/mL was also monitored in parallel as a control to determine any possible change in drug concentration, e.g., due to degradation. Prior to the start of the experiment, UV signals were calibrated using various concentrations of difluprednate standard solutions (0.05, 0.10, 0.50, 1.00, 2.00, 3.00, 4.00, and 6.00 μg/mL). Zero Intercept Method (ZIM) analysis was performed to remove polysorbate-80 interference by using wavelength within the range of 271-274 nm (exact ZIM wavelength varied between probes). Ethanol was used as a co-solvent to prevent the precipitation of difluprednate in the release media.

[2] = Control: pure difluprednate solution diluted with release medium, monitored for degradation; conditions: control sample, at 24 hrs; 5 μg/mL in release medium; n=1
Experimental: as §1

[3] = Adaptive perfusion (AP) IVRT with 100 kD MWCO mPES hollow fiber filter; conditions: AP method
Text: The setup 1000 includes a fresh media reservoir 1002, a particulate filtering device 1004 attached to the fresh media tubing (to prevent particulate contamination), two peristaltic pumps (a first pump 1014 for the sample feed and a second pump 1006 for the fresh media), two additional reservoirs (a first reservoir 1008 for the retentate (also called the feed reservoir) and a second reservoir 1038 for the permeate (also called the permeate reservoir)), a pre-conditioned TFF filter (in particular, an HFF 1020, with first port 1022 and second port 1024 connected to a retentate volume and third port 1032 and fourth port 1040 connected to a permeate volume), a backpressure controlling valve 1028, a magnetic stirrer 1010, a stir plate 1012 for mixing the sample with the media, a pressure monitoring system with three pressure sensors (inlet sensor 1018, retentate sensor 1026, and permeate sensor 1034), a mass flow monitoring system (e.g., flow-meter 1036), a data acquisition system (e.g., computer with software), and a fluid circuit 1030 (e.g., tubing) for interconnecting the various components. HFF 1020 was a Spectrum MicroKros®, 100 kD MWCO, modified polyether sulfone (mPES) membrane, 20 cm^2 surface area (Repligen Corporation, CA, USA). An initial drug product sample of a particular concentration and/or volume was manually spiked into the first reservoir 1008 using conduit 1016.
Pure difluprednate solution and difluprednate polysorbate-80 micelles was evaluated using the setup 1000 of FIG. 10. For pure difluprednate solution, 200 μL of difluprednate solution (1 mg/mL in ethanol) was spiked (via conduit 1016) into 40 mL of release media (10 mM pH 7.4 phosphate buffer mixed with ethanol in the ratio of 80:20 v/v) in reservoir 1008 to reach an initial difluprednate concentration of 5 μg/mL. Ethanol was used as a co-solvent to prevent the precipitation of difluprednate in the media. Difluprednate concentrations in the retentate reservoir 1008 and permeate reservoir 1038 were determined in real time using an in-situ fiber optic UV-Vis system (Pion μDiss Profiler™, Billerica, MA). ZIM analysis was performed to remove polysorbate-80 interference by using wavelength within the range of 271-274 nm (exact ZIM wavelength varied between probes). For difluprednate polysorbate-80 micelles, 1 mL of difluprednate polysorbate-80 micelle solution (100 μg/mL in 3.6% w/v polysorbate-80) was spiked (via conduit 1016) into 40 mL of the release media (10 mM pH 7.4 phosphate buffer) in reservoir 1008 to obtain an initial difluprednate concentration of 2.5 μg/mL. Aliquots of retentate and permeate were collected periodically from the retentate reservoir 1008 and from the permeate tubing (between third port 1032 and permeate reservoir 1038), respectively, and subjected to UPLC analysis to determine difluprednate concentration. Appropriate dilution was performed for the retentate aliquots by using acetonitrile prior to UPLC analysis. The study was conducted at ambient room temperature (i.e., 23.5±1.5° C.).
Several TFF hollow fiber filter modules having different MWCO of 30 kD, 100 kD, 300 kD and 500 kD (Spectrum MicroKros®, modified polyether sulfone (mPES) membrane, 20 cm^2 surface area, Repligen Corporation, CA, USA) were screened initially to select an optimal MWCO for the TFF filter for performing the in vitro release studies. 100 kD MWCO was eventually selected considering the range of globule sizes to be evaluated for the nanoemulsions. 200 μL of nanoemulsion was spiked (via conduit 1016) directly into 40 mL of media (10 mM pH 7.4 phosphate buffer) in reservoir 1008 to provide an initial concentration of 2.5 μg/mL for difluprednate. Aliquots of retentate and permeate were collected periodically from the retentate reservoir 1008 and from the permeate tubing (between outlet 1031 and 1038), respectively, and subjected to UPLC analysis to determine difluprednate concentration. […]

In the case of `CCCC(=O)O[C@]1(C(=O)COC(C)=O)CC[C@H]2[C@@H]3C[C@H](F)C4=CC(=O)C=C[C@]4(C)[C@@]3(F)[C@@H](O)C[C@@]21C` [Pure drug (DFP) solution, Difluprednate], the “drug diffused at plateau” value ([1]; 100 kD MWCO) is reported as “about 75%”, the “time for difluprednate concentration to reach plateau” value ([1]; 100 kD MWCO) is reported as about 8 h and the “time for 50% of difluprednate to diffuse across the dialysis membrane” value ([1]; 100 kD MWCO, 100 rpm, 5 μg/mL) is reported as “more than 3 hours”. For the same molecule, the “time after which decrease in difluprednate concentration was observed (degradation in alkaline media)” value ([1]; inside dialysis tube) was “about 10 hours”, the “pure drug remaining in the bulk media” value [2] was 85% and the “time to reach 90% of drug release” value ([3]; permeate (FIG. 12A)) was “less than 15 minutes”. The “Permeate Maximum Drug Release” value ([3]; Mean ± SD, n = 3) was 93.7 ± 5.5%, the “Permeate t50” value ([3]; Mean ± SD, n = 3) was 5.3 ± 0.6 min and the “Permeate k* (first-order rate constant)” value ([3]; Q = 100*(1 − e^−k*t), Mean ± SD, n = 3, room temperature) was 0.146 ± 0.018 min⁻¹. The “Retentate k* (first-order rate constant)” value ([3]; Q = 100*e^−k*t, Mean ± SD, n = 3, room temperature) was 0.211 ± 0.056 min⁻¹ and the “difluprednate transferred across the membrane (into the permeate)” value ([3]; in less than 15 minutes) was “more than 90%”.
